The values that follow come from patent publication US20130178609A1, “MODULAR CONSTRUCTION OF LIPOPHOSPHOLIPIDS” (Centre National de la Recherche Scientifique - CNRS, priority 2010, published 2013).

A short description of the data set: Fluorescence excitation/emission maxima and molar absorption of the fluorescent phospholipids in EtOH. The data set is classed as physicochemical.

Where “and” joins values, the source holds several entries; their conditions need not be identical. Identical values can stand only once.

For the molecule `CCCCCCCC/C=C\CCCCCCCCOP(=O)(NCc1cn(-c2cc3ccc(O)cc3oc2=O)nn1)OCCCCCCCC/C=C\CCCCCCCC` [Compound 4a], the “λmax,em” value is 425 nm and 479 nm; the “λmax,exc” value is 349 nm and 412 nm.
